Earlier results in patent publication US20090136550A1, “MODIFIED RELEASE FORMULATIONS OF DILTIAZEM” (Capricorn Pharma Inc., priority 2007, published 2009).
Structures can show the parent of a compound that is named as a salt.

water solubility: highly water soluble
Compound: COc1ccc([C@@H]2Sc3ccccc3N(CCN(C)C)C(=O)[C@@H]2OC(C)=O)cc1 [diltiazem hydrochloride]
